In brackets after ≈: the same amount, converted by molar mass. Where two headings read alike, the source gives them in different places.
Legend:
[1] = system: Enterococcus faecalis ATCC 29212; assay: In vitro antibacterial activity, MIC, broth microdilution; assay type: cell-based; conditions: Enterococcus faecalis, ATCC29212; E. faecalis ATCC 29212; MHB; 37° C., 18 hours; read-out: minimum inhibiting concentration MIC
Method: (§1) a) In vitro antibacterial activity The determination of the minimum inhibiting concentrations (MIC), with respect to Gram-positive and Gram-negative bacteria was carried out through the micromethod of gradual broth dilution in double series [National Committee for Clinical Laboratory Standards, 1990; Methods for dilution antimicrobial susceptibility tests for bacteria that grow aerobically; Approved standards […], Villanova, Pa.], by using Mueller Hinton Broth (MHB) as a culture medium. In the case of […] bacteria, horse serum at 5% (Streptococcus pneumoniae and Streptococcus pyogenes) was added to the medium. Roxithromycin and Clarithromycin [The Merck Index, XI Ed., No. 8253 and 2340, respectively] were used as reference macrolides. MIC, expressed as (μg/ml), were determined after incubation of the microplates at 37° C. for 18 hours, evaluating the lowest antibiotic concentration enabling the inhibition of bacterial development.

[2] = system: Escherichia coli ATCC 25922; assay: as above; assay type: cell-based; conditions: Escherichia coli, ATCC25922; E. coli ATCC 25922; MHB; 37° C., 18 hours; read-out: minimum inhibiting concentration MIC
Method: as §1

[3] = system: Klebsiella pneumoniae ZC 2; assay: as above; assay type: cell-based; conditions: Klebsiella pneumoniae, ZC2; K. pneumoniae ZC 2; MHB; 37° C., 18 hours; read-out: minimum inhibiting concentration MIC
Method: as §1

[4] = system: Staphylococcus aureus PV 14; assay: as above; assay type: cell-based; conditions: Staphylococcus aureus, PV14; S. aureus PV 14; MHB; 37° C., 18 hours; read-out: minimum inhibiting concentration MIC
Method: as §1

[5] = system: Streptococcus pneumoniae BS 3; assay: as above; assay type: cell-based; conditions: Streptococcus pneumoniae, BS3; S. pneumoniae BS 3; MHB + 5% horse serum; 37° C., 18 hours; read-out: minimum inhibiting concentration MIC
Method: as §1

[6] = system: Streptococcus pneumoniae BS 4; assay: as above; assay type: cell-based; conditions: Streptococcus pneumoniae, BS4; S. pneumoniae BS 4; MHB + 5% horse serum; 37° C., 18 hours; read-out: minimum inhibiting concentration MIC
Method: as §1

[7] = system: Streptococcus pyogenes A 26; assay: as above; assay type: cell-based; conditions: Streptococcus pyogenes, A26; S. pyogenes A 26; MHB + 5% horse serum; 37° C., 18 hours; read-out: minimum inhibiting concentration MIC
Method: as §1

[8] = system: Streptococcus pyogenes C 203; assay: as above; assay type: cell-based; conditions: Streptococcus pyogenes, C203; S. pyogenes C 203; MHB + 5% horse serum; 37° C., 18 hours; read-out: minimum inhibiting concentration MIC
Method: as §1

[9] = system: Streptococcus pyogenes C 203; assay: In vivo antibacterial activity, experimental pulmonary infection in mouse; conditions: for ED50: Streptococcus pyogenes, C203, ip, 240 h, intraperitoneal single dose, read-out: average protecting dose PD50
Method: The in vivo antibacterial activity of the compounds of formula (I), expressed as average protecting dose PD50 (mg/Kg), was evaluated by means of experimental pulmonary infection induced in mouse by Streptococcus pyogenes (example 23).
b) In vivo antibacterial activity
The therapeutical effectiveness, expressed as average protecting dose (PD50), of the considered compounds of formula (I) was evaluated by experimental pulmonary infection induced in mouse by Streptococcus pyogenesC 203.
Charles River albin mice (strain CD 1), of body weight comprised between 23-35 g, stabulated in groups of 6 for cage and normo-feeded with standard diet and water ad libitum were used. A suspension of S. pyogenes C 203 (corresponding about to 10^8 UFC) in tryptose broth (0.05 ml) was intranasally administered to each mouse anesthesized with a mixture of ethyl ether and chloroform.
The compounds under examination were intraperitoneally administered as a single dose, in 0.2% Tween suspension, 24 hours before or 1 hour after the infection.
Mice mortality observation was prolonged up to 10 days from the infection.
PD50 calculation, expressed as (mg/Kg), was carried out through the analysis of probit.
In vivo antibacterial activity, expressed as average protecting dose PD50 (mg/Kg), 24 hours before and 1 hour after the experimental pulmonary infection induced in mouse by Streptococcus pyogenes C 203, of the compounds 4, 10, 16-19, 21, 23, 26-27, 29-30, 33-35 and 38 and of the reference compounds Roxithromycin and Clarithromycin.

Structure (SMILES)	MIC [1] [µg/mL]	MIC [2] [µg/mL]	MIC [3] [µg/mL]	MIC [4] [µg/mL]	MIC [5] [µg/mL]	MIC [6] [µg/mL]	MIC [7] [µg/mL]	MIC [8] [µg/mL]	ED50 ([9]; 1 hour after infection) [mg/kg]	ED50 ([9]; 24 hours before infection) [mg/kg]	in vivo activity, pulmonary infection (in words) ([9]; administered 24 hours before the infection)
CC[C@H]1OC(=O)[C@H](C)[C@@H](O[C@H]2C[C@@](C)(OC)[C@@H](O)[C@H](C)O2)[C@H](C)[C@@H](O[C@@H]2O[C@H](C)C[C@H](N(C)C)[C@H]2O)[C@](C)(O)C[C@@H](C)/C(=N\OCCNCCCCCCNCc2ccccc2[N+](=O)[O-])[C@H](C)[C@@H](O)[C@]1(C)O [Compound 33, Erythromycin A (E)-9-[0-[2-[6-[(2-nitrophenyl)methylamino]hexylamino]ethyl]oxime]]	2 (≈ 1.95 µM)	4 (≈ 3.9 µM)	16 (≈ 15.6 µM)	0.5 (≈ 0.487 µM)	0.0039	0.0039	0.0039	0.00097	1.61	6.11	–
CC[C@H]1OC(=O)[C@H](C)[C@@H](O[C@H]2C[C@@](C)(OC)[C@@H](O)[C@H](C)O2)[C@H](C)[C@@H](O[C@@H]2O[C@H](C)C[C@H](N(C)C)[C@H]2O)[C@](C)(OC)C[C@@H](C)C(=O)[C@H](C)[C@@H](O)[C@]1(C)O [Clarithromycin, reference compound]	1 (≈ 1.34 µM)	64 (≈ 85.6 µM)	128 (≈ 171 µM)	0.25 (≈ 0.334 µM)	0.0078	0.0156	0.0078	0.0078	3.25	> 50	inactive
CC[C@H]1OC(=O)[C@H](C)[C@@H](O[C@H]2C[C@@](C)(OC)[C@@H](O)[C@H](C)O2)[C@H](C)[C@@H](O[C@@H]2O[C@H](C)C[C@H](N(C)C)[C@H]2O)[C@](C)(O)C[C@@H](C)/C(=N\OCCNCCCCCCNCc2cccc(C(F)(F)F)c2)[C@H](C)[C@@H](O)[C@]1(C)O [Compound 19, Erythromycin A (E)-9-[0-[2-[6-[(3-trifluoromethylphenyl)methylamino]hexylamino]ethyl]oxime]]	2 (≈ 1.91 µM)	2 (≈ 1.91 µM)	8 (≈ 7.62 µM)	1 (≈ 0.953 µM)	0.0156	0.0078	0.0156	0.0156	1.95	4.84	–
CC[C@H]1OC(=O)[C@H](C)[C@@H](O[C@H]2C[C@@](C)(OC)[C@@H](O)[C@H](C)O2)[C@H](C)[C@@H](O[C@@H]2O[C@H](C)C[C@H](N(C)C)[C@H]2O)[C@](C)(O)C[C@@H](C)/C(=N\OCCNCCCCCCNCc2cccc(Oc3ccccc3)c2)[C@H](C)[C@@H](O)[C@]1(C)O [Compound 27, Erythromycin A (E)-9-[0-[2-[6-[(3-phenoxyphenyl)methylamino]hexylamino]ethyl]oxime]]	1 (≈ 0.932 µM)	1 (≈ 0.932 µM)	2 (≈ 1.86 µM)	0.5 (≈ 0.466 µM)	0.0078	0.0078	0.0156	0.0078	15.6	15.6	–
CC[C@H]1OC(=O)[C@H](C)[C@@H](O[C@H]2C[C@@](C)(OC)[C@@H](O)[C@H](C)O2)[C@H](C)[C@@H](O[C@@H]2O[C@H](C)C[C@H](N(C)C)[C@H]2O)[C@](C)(O)C[C@@H](C)/C(=N\OCCNCCCCCCNCc2ccc(F)cc2)[C@H](C)[C@@H](O)[C@]1(C)O [Compound 16, Erythromycin A (E)-9-[0-[2-[6-[(4-fluorophenyl)methylamino]hexylamino]ethyl]oxime]]	4 (≈ 4 µM)	2 (≈ 2 µM)	8 (≈ 8.01 µM)	0.25 (≈ 0.25 µM)	0.0156	0.0156	0.0156	0.0039	3.6	10.2	–
CC[C@H]1OC(=O)[C@H](C)[C@@H](O[C@H]2C[C@@](C)(OC)[C@@H](O)[C@H](C)O2)[C@H](C)[C@@H](O[C@@H]2O[C@H](C)C[C@H](N(C)C)[C@H]2O)[C@](C)(O)C[C@@H](C)/C(=N\OCCNCCCCCCNCc2ccc(C(F)(F)F)cc2)[C@H](C)[C@@H](O)[C@]1(C)O [Compound 23, Erythromycin A (E)-9-[0-[2-[6-[(4-trifluoromethylphenyl)methylamino]hexylamino]ethyl]oxime]]	2 (≈ 1.91 µM)	1 (≈ 0.953 µM)	4 (≈ 3.81 µM)	1 (≈ 0.953 µM)	0.0156	0.0078	0.0156	0.0156	1.46	–	–
CC[C@H]1OC(=O)[C@H](C)[C@@H](O[C@H]2C[C@@](C)(OC)[C@@H](O)[C@H](C)O2)[C@H](C)[C@@H](O[C@@H]2O[C@H](C)C[C@H](N(C)C)[C@H]2O)[C@](C)(O)C[C@@H](C)/C(=N\OCCNCCCCCCNCc2ccc([N+](=O)[O-])cc2)[C@H](C)[C@@H](O)[C@]1(C)O [Compound 35]	0.5 (≈ 0.487 µM)	1 (≈ 0.974 µM)	4 (≈ 3.9 µM)	0.25 (≈ 0.244 µM)	0.0039	0.0039	0.0078	0.0019	3	6	–
CC[C@H]1OC(=O)[C@H](C)[C@@H](O[C@H]2C[C@@](C)(OC)[C@@H](O)[C@H](C)O2)[C@H](C)[C@@H](O[C@@H]2O[C@H](C)C[C@H](N(C)C)[C@H]2O)[C@](C)(O)C[C@@H](C)/C(=N\OCCNCCCCCCNCc2ccc3c(c2)OCO3)[C@H](C)[C@@H](O)[C@]1(C)O [Compound 18, Erythromycin A (E)-9-[0-[2-[6-[(3,4-methylenedioxyphenyl)methylamino]hexylamino]ethyl]oxime]]	2 (≈ 1.95 µM)	2 (≈ 1.95 µM)	16 (≈ 15.6 µM)	0.25 (≈ 0.244 µM)	0.0156	0.0312	0.0312	0.0078	1.32	2.23	–
CCCCOc1ccc(CNCCCCCCNCCO/N=C2\[C@H](C)C[C@@](C)(O)[C@H](O[C@@H]3O[C@H](C)C[C@H](N(C)C)[C@H]3O)[C@@H](C)[C@H](O[C@H]3C[C@@](C)(OC)[C@@H](O)[C@H](C)O3)[C@@H](C)C(=O)O[C@H](CC)[C@@](C)(O)[C@H](O)[C@H]2C)cc1 [Compound 26, Erythromycin A (E)-9-[0-[2-[6-[(4-n.butoxyphenyl)methylamino]hexylamino]ethyl]oxime]]	1 (≈ 0.949 µM)	1 (≈ 0.949 µM)	2 (≈ 1.9 µM)	0.25 (≈ 0.237 µM)	0.0156	0.0156	0.0312	0.0078	6.11	6.11	–
CC[C@H]1OC(=O)[C@H](C)[C@@H](O[C@H]2C[C@@](C)(OC)[C@@H](O)[C@H](C)O2)[C@H](C)[C@@H](O[C@@H]2O[C@H](C)C[C@H](N(C)C)[C@H]2O)[C@](C)(O)C[C@@H](C)/C(=N\OCCNCCCCCCNCc2ccccc2)[C@H](C)[C@@H](O)[C@]1(C)O [Compound 4, Erythromycin A (E)-9-[0-[2-[6-(phenylmethylamino)hexylamino]ethyl]oxime]]	4 (≈ 4.08 µM)	4 (≈ 4.08 µM)	16 (≈ 16.3 µM)	0.25 (≈ 0.255 µM)	0.0156	0.0156	0.0156	0.0039	0.9	4.78	–

Reference: patent publication US5847092A (Zambon Group S.p.A., priority 1994, dated 1998)
